Laboratory results: ChEMBL document CHEMBL1143290, “In vitro anti-inflammatory activity of lignans isolated from Magnolia fargesii” (Bioorg Med Chem Lett, 2009)

Experiments:
BV-2 = assay: Inhibition of NO production in LPS-stimulated mouse BV2 cells assessed as nitrite accumulation after 20 hrs by Griess reagent method; format: functional, cell-based; settings: BV-2, 20 h
[1] = Inhibition of NOS

| IC50 (BV-2) [µM] | IC50 [1] [µM] | SMILES |
| --- | --- | --- |
| 28.6 | – | COc1cc([C@H]2OC[C@H]3[C@@H]2CO[C@@H]3c2cc(OC)c(OC)c(OC)c2)cc(OC)c1OC |
| 20.5 | – | COc1ccc([C@H]2OC[C@H]3[C@@H]2CO[C@@H]3c2cc(OC)c(OC)c(OC)c2)cc1OC |
| 30 | – | COc1ccc([C@H]2OC[C@H]3[C@@H]2CO[C@@H]3c2ccc(OC)c(OC)c2)cc1OC [(+)-EUDESMIN] |
| – | 19.2 | CNC(=N)NCCC[C@H](N)C(=O)O [TILARGININE] |
